Results on 3 compounds are retold here after ChEMBL document CHEMBL1134999, “Synthesis and cytotoxic activity of a new potent daunomycinone derivative” (Bioorg Med Chem Lett, 2002).

The subject of assay [1] is KB. The assay is described as follows: In vitro cytotoxic activity was evaluated using the KB-3-1 resistant to adriamycin (ADR) subline KB-A1. The settings on record: Homo sapiens. Type of assay: functional, cell-based.
Assay [2] has as its system L1210. The assay is described as follows: In vitro cytotoxic activity was evaluated using the murine leukemia L1210 cell line. The format is functional, cell-based. The settings on record: Mus musculus.
The subject of assay [3] is SK-MES-1. The assay is described as follows: Resistance factor (RF), ratio between the IC50 on the resistant cells and the IC50 on the corresponding sensitive cells of MES cell line. The format is functional, Homo sapiens.
Assay [4] has as its system MES-SA. The assay is described as follows: In vitro cytotoxic activity was evaluated using the MES-SA multidrug-resistant subline MES-SA/Dx5. Type of assay: functional, cell-based. The settings on record: Homo sapiens.
In assay [5] the test system is KB. Nature of the assay: Resistance factor (RF), ratio between the IC50 on the resistant cells and the IC50 on the corresponding sensitive cells of KB cell line. The format is functional, Homo sapiens.
Assay [6] has as its system MES-SA. The assay is described as follows: In vitro cytotoxic activity was evaluated using the human uterine sarcoma cell line MES-SA. Type of assay: functional, cell-based.
The test system of assay [7] is KB 3-1. Nature of the assay: In vitro cytotoxic activity was evaluated using the human epidermoid carcinoma cell line KB-3-1. Type of assay: functional, cell-based.

On to `COc1cccc2c1C(=O)c1c(O)c3c(c(O)c1C2=O)C[C@@](O)(C(C)=O)C[C@@H]3OC1CC(Br)C(N=[N+]=[N-])C(C)O1` (some centres not stated), for which the IC50 amounted to 900 nM in assay [1]; 500 nM in assay [2]; 2000 nM in assay [4]; 7000 nM in assay [6]; 800 nM in assay [7]. In addition, the Resistance factor in assay [3] was 0.28; in assay [5], 1.1.

In the case of `COc1cccc2c1C(=O)c1c(O)c3c(c(O)c1C2=O)C[C@@](O)(C(C)=O)C[C@@H]3O[C@H]1C[C@H](N)[C@H](O)[C@H](C)O1` [DAUNORUBICIN], the IC50 in assay [2] stood at 40 nM; in assay [4], 3000 nM; in assay [6] it was 70 nM. The Resistance factor in assay [3] is listed as 42.8; in assay [5] it was 295.7.

For the compound `COc1cccc2c1C(=O)c1c(O)c3c(c(O)c1C2=O)C[C@@](O)(C(=O)CO)C[C@@H]3O[C@H]1C[C@H](N)[C@H](O)[C@H](C)O1` [DOXORUBICIN], the IC50 in assay [2] is 25 nM; in assay [4], 12000 nM; in assay [6], 250 nM. Also, the Resistance factor in assay [3] is given as 48; in assay [5], 333.8.

As a reminder, the IC50 is the midpoint of a concentration-inhibition curve. A low value points to greater potency in that assay.
